Source: patent US20200179273A1, “LONG-ACTION IMPLANT FOR TREATMENT OF INFECTIOUS DISEASES” (Merck Sharp & Dohme Corp., priority 2017, published 2020)
Converted amounts (≈) assume the structure as drawn. Where two headings read alike, the source gives them in different places.

Columns and labels:
[1] = In vitro drug release from compressed implants; type: physicochemical; details: compressed implant 80wt % drug, PBS with 0.2 or 5wt % SDS, 37° C., 50 rpm
Experimental: The in vitro release rate of the drug was determined by incubating individual implants in a glass vial with phosphate buffered saline (PBS) containing 0.2 or 5wt % sodium dodecyl sulfate (SDS) at 37° C., and 50 rpm shaking in an Innova 42 incubator. The volume of media was sufficient to maintain sink conditions. Sink conditions are defined as the drug concentration maintained at or below ⅓ of the maximum solubility. Samples were removed at selected time points, and centrifuged at 20,800×g for 8 min. The supernatant was analyzed by HPLC.

[2] = Solubility of anti-tuberculosis compounds in PBS; type: physicochemical; details: aqueous buffer
[3] = In vivo drug release: drug concentration in blood plasma after subcutaneous implants; design: species or system Wistar Han rat; details: rat, three compressed implants subcutaneous; for concentration at 0.167 days / concentration at 0.25 days / concentration at 1 day / concentration at 2 days / concentration at 9 days / concentration at 16 days / concentration at 30 days / concentration at 44 days / concentration at 0.083 days / concentration at 58 days: Wistar Han, plasma, sc; for concentration at 0.167 days / concentration at 0.25 days / concentration at 1 day / concentration at 2 days / concentration at 9 days / concentration at 16 days / concentration at 30 days / concentration at 44 days: 60 mg/animal; for concentration at 0.083 days / concentration at 58 days: 60 mg
From the text: For each implantation, a Wistar Han rat was anesthetized using isoflurane to effect prior to subcutaneous dose administration. Using a trocar needle, three implants from each formulation example above were placed subcutaneously in the intrascapular region of a rat. Three animals were used for each formulation. Animals were monitored until recovered. At indicated time points, samples of blood were obtained from anesthetized animals (using isoflurane) and processed to plasma for determination of drug concentration by LC/MS. Results are shown in the below table (Table 4).

[4] = dissolution media PBS, 37° C., read-out: Solubility at 37° C.
[5] = in phosphate buffered saline (PBS), read-out: aqueous solubility

Structure (SMILES)	Cumulative in vitro drug release Avg. ([1]; 1 day)	Cumulative in vitro drug release Avg. ([1]; 11 days)	solubility [2, 4]	solubility [2, 5]	concentration at 0.167 days ([3]; 0.167 days)	concentration at 0.25 days ([3]; 0.25 days)	concentration at 1 day ([3]; 1 day)	concentration at 2 days ([3]; 2 days)	concentration at 9 days [3]	concentration at 16 days [3]	concentration at 30 days [3]	concentration at 44 days [3]	concentration at 0.083 days ([3]; 0.083 days)	concentration at 58 days [3]	Cumulative in vitro drug release Avg. ([1]; 20 days)	Drug concentration in blood plasma Avg. ([3]; 0.083 days)	Drug concentration in blood plasma Avg. ([3]; 0.167 days)	Drug concentration in blood plasma Avg. ([3]; 0.25 days)	Drug concentration in blood plasma Avg. ([3]; 1 day)	Drug concentration in blood plasma Avg. ([3]; 2 days)
CO[C@H]1/C=C/O[C@@]2(C)Oc3c(C)c(O)c4c(c3C2=O)C2=NC3(CCN(CC(C)C)CC3)NC2=C(NC(=O)/C(C)=C\C=C\[C@H](C)[C@H](O)[C@@H](C)[C@@H](O)[C@@H](C)[C@H](OC(C)=O)[C@@H]1C)C4=O [rifabutin]	40.6%	107.7%	101 µg/mL (≈ 119 µM)	< 200 µg/mL	164 nM	244 nM	209 nM	182 nM	119 nM	75.9 nM	69.3 nM	42.3 nM	81.9 nM	38.3 nM						
COc1nc2ccc(Br)cc2cc1[C@@H](c1ccccc1)[C@@](O)(CCN(C)C)c1cccc2ccccc12 [bedaquiline]	10.9%	41.4%	129 µg/mL (≈ 232 µM)	< 200 µg/mL					81 nM	63.6 nM	51.7 nM	70.3 nM		60.2 nM	57.2%	BLQ	BLQ	BLQ	BLQ	BLQ
CO[C@H]1/C=C/O[C@@]2(C)Oc3c(C)c(O)c4c(O)c(c(/C=N/N5CCN(C6CCCC6)CC5)c(O)c4c3C2=O)NC(=O)/C(C)=C\C=C\[C@H](C)[C@H](O)[C@@H](C)[C@@H](O)[C@@H](C)[C@H](OC(C)=O)[C@@H]1C [rifapentine]			134 µg/mL (≈ 153 µM)	< 200 µg/mL	803 nM	1250 nM	3530 nM	5210 nM	5980 nM	2260 nM	1010 nM	1460 nM	630 nM	477 nM						
C[C@]1(COc2ccc(N3CCC(Oc4ccc(OC(F)(F)F)cc4)CC3)cc2)Cn2cc([N+](=O)[O-])nc2O1 [delamanid]	20.3%	26.8%													38.3%					
